Test results taken from patent US20120245137A1 (Zalicus Pharmaceuticals Ltd., priority 2009, published 2012).
pIC50: −log10 of the molar value. Like-named read-outs stand apart in the source and are kept apart here.

What was measured:
Type in all cases: cell-based
T-type calcium channel [1] = molecular target: T-type calcium channel (Homo sapiens, UniProt O43497); experiment: T-type channel blocking, FLIPR data (Table 6); details: CAv3.1
Source text: (§1) Another method, high-throughput spectrophotometric assay, utilizes loading of the cell lines with a fluorescent dye sensitive to intracellular calcium concentration and subsequent examination of the effects of compounds on the ability of depolarization by potassium chloride or other means to alter intracellular calcium levels.

T-type calcium channel [2] = molecular target: T-type calcium channel (Homo sapiens, UniProt O95180); experiment: T-type channel blocking, FLIPR data (Table 6); details: for CAv3.2 IC50 Ratio closed/inact.: CAv3.2, ratio closed/inactivated IC50
Source text: as §1

Human Cav 2.2 channels = Human Cav 2.2 channels (Homo sapiens, UniProt Q00975); experiment: Fluorescent assay for CaV2.2 channels using potassium depolarization (VIPR/FLIPR); details: FLIPR data; for CAv2.2 IC50 Ratio closed/inact.: ratio closed/inactivated IC50
Human Cav 2.2 channels, sequence (Q00975 whole entry): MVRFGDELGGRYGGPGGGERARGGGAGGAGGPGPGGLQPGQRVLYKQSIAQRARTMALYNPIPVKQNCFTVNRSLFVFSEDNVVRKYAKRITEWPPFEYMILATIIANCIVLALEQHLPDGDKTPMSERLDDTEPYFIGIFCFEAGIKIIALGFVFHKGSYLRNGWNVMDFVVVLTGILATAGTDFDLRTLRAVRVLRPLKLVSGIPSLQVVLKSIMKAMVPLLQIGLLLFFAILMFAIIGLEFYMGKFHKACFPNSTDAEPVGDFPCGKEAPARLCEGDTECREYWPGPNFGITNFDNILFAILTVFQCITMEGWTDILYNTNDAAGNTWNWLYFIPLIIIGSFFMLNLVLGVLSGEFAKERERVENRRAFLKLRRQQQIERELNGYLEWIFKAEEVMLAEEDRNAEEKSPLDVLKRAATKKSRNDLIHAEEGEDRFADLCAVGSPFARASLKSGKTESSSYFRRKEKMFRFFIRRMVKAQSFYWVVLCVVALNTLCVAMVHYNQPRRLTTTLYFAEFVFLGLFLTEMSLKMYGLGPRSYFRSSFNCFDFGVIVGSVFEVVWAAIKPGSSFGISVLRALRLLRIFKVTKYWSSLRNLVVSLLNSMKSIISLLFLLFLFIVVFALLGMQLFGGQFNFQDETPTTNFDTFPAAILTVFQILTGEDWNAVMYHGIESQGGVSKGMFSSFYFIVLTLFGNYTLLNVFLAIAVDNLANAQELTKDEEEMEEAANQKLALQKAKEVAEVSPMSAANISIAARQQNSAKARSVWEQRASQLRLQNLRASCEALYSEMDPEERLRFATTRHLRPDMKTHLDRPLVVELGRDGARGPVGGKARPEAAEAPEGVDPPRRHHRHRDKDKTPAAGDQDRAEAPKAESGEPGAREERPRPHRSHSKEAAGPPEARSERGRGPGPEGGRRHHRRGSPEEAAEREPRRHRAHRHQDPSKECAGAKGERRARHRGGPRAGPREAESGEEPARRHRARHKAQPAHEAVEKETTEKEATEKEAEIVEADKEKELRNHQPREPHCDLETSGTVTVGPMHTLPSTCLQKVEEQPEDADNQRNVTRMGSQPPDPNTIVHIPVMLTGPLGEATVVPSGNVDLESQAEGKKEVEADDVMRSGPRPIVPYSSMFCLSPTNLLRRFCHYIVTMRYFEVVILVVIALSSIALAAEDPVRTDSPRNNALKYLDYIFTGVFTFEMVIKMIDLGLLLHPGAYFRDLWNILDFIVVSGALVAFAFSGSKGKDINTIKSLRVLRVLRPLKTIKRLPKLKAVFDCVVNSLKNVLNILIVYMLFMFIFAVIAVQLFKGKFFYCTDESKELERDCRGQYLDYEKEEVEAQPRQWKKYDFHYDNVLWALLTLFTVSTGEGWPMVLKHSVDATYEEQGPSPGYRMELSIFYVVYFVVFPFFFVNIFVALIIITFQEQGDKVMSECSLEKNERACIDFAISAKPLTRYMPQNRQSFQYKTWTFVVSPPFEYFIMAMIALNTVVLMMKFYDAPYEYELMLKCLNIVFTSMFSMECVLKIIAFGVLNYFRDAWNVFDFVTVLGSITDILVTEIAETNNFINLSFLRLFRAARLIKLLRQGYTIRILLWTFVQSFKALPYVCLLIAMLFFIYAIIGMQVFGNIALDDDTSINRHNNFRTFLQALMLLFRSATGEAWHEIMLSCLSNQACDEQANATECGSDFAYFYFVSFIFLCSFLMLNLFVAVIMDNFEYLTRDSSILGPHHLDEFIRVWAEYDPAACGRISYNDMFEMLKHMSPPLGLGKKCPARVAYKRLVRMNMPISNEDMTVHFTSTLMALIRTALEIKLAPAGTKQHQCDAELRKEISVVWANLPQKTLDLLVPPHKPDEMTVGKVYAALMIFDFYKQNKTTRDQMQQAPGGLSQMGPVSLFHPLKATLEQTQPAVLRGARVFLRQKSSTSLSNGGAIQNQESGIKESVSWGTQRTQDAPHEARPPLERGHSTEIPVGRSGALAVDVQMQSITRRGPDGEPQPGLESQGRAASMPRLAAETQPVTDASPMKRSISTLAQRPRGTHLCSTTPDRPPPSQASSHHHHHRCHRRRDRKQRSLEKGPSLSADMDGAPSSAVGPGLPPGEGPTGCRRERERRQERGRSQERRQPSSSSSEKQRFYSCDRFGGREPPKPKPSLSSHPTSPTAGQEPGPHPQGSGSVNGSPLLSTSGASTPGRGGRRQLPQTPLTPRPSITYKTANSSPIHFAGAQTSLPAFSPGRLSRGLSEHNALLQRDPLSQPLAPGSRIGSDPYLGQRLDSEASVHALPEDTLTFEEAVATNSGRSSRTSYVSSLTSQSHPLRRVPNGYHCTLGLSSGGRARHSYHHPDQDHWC
Human Cav 2.2 channels, sequence (P54289 25-1103 partner): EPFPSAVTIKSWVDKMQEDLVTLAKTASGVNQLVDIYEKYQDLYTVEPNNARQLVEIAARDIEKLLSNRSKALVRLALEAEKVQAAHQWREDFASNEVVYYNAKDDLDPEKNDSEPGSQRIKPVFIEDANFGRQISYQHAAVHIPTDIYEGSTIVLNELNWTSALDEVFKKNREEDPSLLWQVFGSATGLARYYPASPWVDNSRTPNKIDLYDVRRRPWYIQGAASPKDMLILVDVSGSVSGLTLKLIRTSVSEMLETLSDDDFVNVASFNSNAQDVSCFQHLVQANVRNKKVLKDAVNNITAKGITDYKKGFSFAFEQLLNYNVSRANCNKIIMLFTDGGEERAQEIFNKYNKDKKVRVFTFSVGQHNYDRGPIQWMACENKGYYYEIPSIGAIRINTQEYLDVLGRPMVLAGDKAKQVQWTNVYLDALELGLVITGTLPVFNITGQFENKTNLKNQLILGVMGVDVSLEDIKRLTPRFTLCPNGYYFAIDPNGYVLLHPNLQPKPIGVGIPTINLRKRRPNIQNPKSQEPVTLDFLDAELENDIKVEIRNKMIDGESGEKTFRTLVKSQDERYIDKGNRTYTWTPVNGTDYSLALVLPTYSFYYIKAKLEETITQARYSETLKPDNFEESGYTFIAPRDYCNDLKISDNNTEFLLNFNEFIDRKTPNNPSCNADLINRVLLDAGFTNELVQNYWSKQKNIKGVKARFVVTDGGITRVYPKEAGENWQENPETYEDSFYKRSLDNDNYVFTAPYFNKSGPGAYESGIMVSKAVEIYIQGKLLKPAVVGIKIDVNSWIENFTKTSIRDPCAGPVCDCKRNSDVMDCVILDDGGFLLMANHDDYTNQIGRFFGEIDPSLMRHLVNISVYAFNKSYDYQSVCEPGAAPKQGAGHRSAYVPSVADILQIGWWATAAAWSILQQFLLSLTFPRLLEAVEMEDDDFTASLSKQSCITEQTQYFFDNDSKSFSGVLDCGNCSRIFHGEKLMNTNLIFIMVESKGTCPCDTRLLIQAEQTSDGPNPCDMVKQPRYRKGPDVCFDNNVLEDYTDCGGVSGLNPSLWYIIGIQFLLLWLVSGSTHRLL
Human Cav 2.2 channels, sequence (P54284 whole entry partner): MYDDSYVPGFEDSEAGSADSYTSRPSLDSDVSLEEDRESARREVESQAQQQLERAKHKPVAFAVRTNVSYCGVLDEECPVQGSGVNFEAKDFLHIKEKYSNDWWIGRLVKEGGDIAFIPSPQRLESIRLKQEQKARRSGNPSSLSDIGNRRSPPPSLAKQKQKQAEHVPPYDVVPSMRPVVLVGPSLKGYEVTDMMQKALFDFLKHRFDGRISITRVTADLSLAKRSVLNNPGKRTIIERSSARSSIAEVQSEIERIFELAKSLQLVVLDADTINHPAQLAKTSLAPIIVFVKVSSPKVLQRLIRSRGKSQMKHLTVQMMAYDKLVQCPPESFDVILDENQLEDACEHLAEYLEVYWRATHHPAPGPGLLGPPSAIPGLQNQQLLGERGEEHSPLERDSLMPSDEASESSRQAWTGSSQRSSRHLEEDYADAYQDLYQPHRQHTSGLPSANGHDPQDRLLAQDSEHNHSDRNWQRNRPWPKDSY
Outline: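 Fluo-4 calcium fluorescence (480/535 nm) was recorded on VIPR or FLIPR after depolarization to 70 mM final potassium. Before this, cells were preincubated 30 min at 25 °C with compound in 4–30 mM potassium, so that state-dependent block could be assessed; the cells were HEK293 coexpressing Cav2.2, α2δ, β and Kir2.3.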

CAv1.2 = CAv1.2 (Homo sapiens, UniProt Q13936); experiment: FLIPR data, CAv1.2 channel blocking (Table 6); details: for CAv1.2 IC50 Ratio closed/inact.: ratio closed/inactivated IC50
[3] = CAv3.2, closed state, read-out: CAv3.2 IC50 Closed
[4] = CAv3.2, inactivated state, read-out: CAv3.2 IC50 Inact.
[5] = closed state, read-out: CAv2.2 IC50 Closed
[6] = inactivated state, read-out: CAv2.2 IC50 Inact.
[7] = closed state, read-out: CAv1.2 IC50 Closed
[8] = inactivated state, read-out: CAv1.2 IC50 Inact.

Structure (SMILES) | pIC50 (T-type calcium channel [1]) | pIC50 (T-type calcium channel [2]; [3]) | pIC50 (T-type calcium channel [2]; [4]) | CAv3.2 IC50 Ratio closed/inact. (T-type calcium channel [2]) | pIC50 (Human Cav 2.2 channels; [5]) | pIC50 (Human Cav 2.2 channels; [6]) | CAv2.2 IC50 Ratio closed/inact. (Human Cav 2.2 channels) | pIC50 (CAv1.2; [7]) | pIC50 (CAv1.2; [8]) | CAv1.2 IC50 Ratio closed/inact. (CAv1.2)
CC(C)(C[C@H]1C[C@H](NC(=O)c2cnc(C(F)(F)F)nc2)C1)S(=O)(=O)c1cccc(C(F)(F)F)c1 [Compound 721] | ≤ 5.00 | 5.07 | 5.36 | 2 | 5.31 | 6.29 | 9.5 | ≤ 5.00 | 5.34 | 2.2
Cn1nc(C(F)(F)F)cc1C(=O)N[C@H]1C[C@H](CC(C)(C)S(=O)(=O)c2cccc(C(F)(F)F)c2)C1 [Compound 725] | 5.44 | 5.64 | 6.17 | 3.4 | 5.79 | 6.85 | 11.6 | 5.17 | 5.56 | 2.4
CC(C)([C@H]1C[C@H](NC(=O)c2ncc(C(F)(F)F)cc2S(C)(=O)=O)C1)S(=O)(=O)c1cccc(OC(F)(F)F)c1 [Compound 637] | ≤ 5.00 | ≤ 5.00 | 5.00 | 1 | 5.00 | 6.24 | 17.2 | – | ≤ 5.00 | –
CC(C)(C[C@H]1C[C@@H](NC(=O)c2ccc(Cl)cn2)C1)S(=O)(=O)c1cccc(C(F)(F)F)c1 [Compound 733] | 5.21 | 5.34 | 5.85 | 3.3 | 6.30 | 7.30 | 10 | 5.14 | 5.40 | 1.8
O=C(NC[C@H]1C[C@H](S(=O)(=O)c2cccc(C(F)(F)F)c2)C1)c1ccc(C(F)(F)F)nc1 [Compound 571] | ≤ 5.00 | ≤ 5.00 | 5.00 | 1 | 5.00 | 6.38 | 23.8 | ≤ 5.00 | ≤ 5.00 | –
O=S(=O)(c1cc(F)cc(C(F)(F)F)c1)[C@H]1C[C@@H](CNc2ccnc(C(F)(F)F)n2)C1 [Compound 651] | 5.04 | 5.19 | 5.44 | 1.8 | 5.00 | 5.49 | 3.1 | 5.04 | 5.41 | 2.4
CC(C)([C@H]1C[C@H](NC(=O)c2cc(C(F)(F)F)n[nH]2)C1)S(=O)(=O)c1cccc(OC(F)(F)F)c1 [Compound 632] | 5.03 | 6.24 | 5.82 | 0.4 | 5.24 | 6.34 | 12.4 | ≤ 5.00 | 5.48 | 3
CC(C)([C@H]1C[C@@H](NS(=O)(=O)c2ccc(C(F)(F)F)cc2Cl)C1)S(=O)(=O)c1cccc(C(F)(F)F)c1 [Compound 627] | 5.62 | 5.66 | 5.88 | 1.7 | 5.00 | 6.06 | 11.4 | ≤ 5.00 | 5.23 | 1.7
CC(C)(C1CC(CNC(=O)c2ccc(C(F)(F)F)cc2S(C)(=O)=O)C1)S(=O)(=O)c1cccc(C(F)(F)F)c1 (stereo not shown) [Compound 612] | ≤ 5.00 | 5.03 | 5.40 | 2.3 | 5.07 | 6.27 | 15.8 | ≤ 5.00 | 5.38 | 2.4
CC(C)([C@H]1C[C@@H](NC(=O)c2ccc(F)c(Cl)c2)C1)S(=O)(=O)c1cc(F)cc(C(F)(F)F)c1 [Compound 590] | 5.16 | 5.37 | 5.86 | 3.1 | 5.55 | 6.47 | 8.3 | 5.27 | 5.77 | 3.1
CC(C)([C@H]1C[C@H](NS(=O)(=O)c2ccc(F)c(Cl)c2)C1)S(=O)(=O)c1cc(F)cc(C(F)(F)F)c1 [Compound 606] | 5.38 | 5.07 | 5.45 | 2.4 | 5.60 | 6.04 | 2.7 | 5.25 | 5.56 | 2
O=C(NC[C@H]1C[C@H](S(=O)(=O)c2cccc(OC(F)(F)F)c2)C1)c1ccc(C(F)(F)F)nc1 [Compound 695] | 5.01 | 5.07 | 5.25 | 1.5 | 5.29 | 6.11 | 6.6 | ≤ 5.00 | ≤ 5.00 | –
CC(C)([C@H]1C[C@H](NS(=O)(=O)c2ccc(Cl)c(F)c2)C1)S(=O)(=O)c1cccc(C(F)(F)F)c1 [Compound 665] | 5.56 | 5.52 | 5.58 | 1.1 | 5.14 | 6.10 | 9.1 | 5.05 | 5.38 | 2.1
CC(C)([C@H]1C[C@@H](NC(=O)c2cc(C(F)(F)F)n[nH]2)C1)S(=O)(=O)c1cccc(OC(F)(F)F)c1 [Compound 639] | 5.64 | 5.59 | 5.59 | 1 | 5.21 | 6.06 | 7.1 | 5.03 | 5.47 | 2.7
CC(C)(C1CC(CNC(=O)c2ccc(Cl)c(F)c2)C1)S(=O)(=O)c1cccc(C(F)(F)F)c1 (stereo not shown) [Compound 617] | 5.10 | 5.57 | 6.09 | 3.3 | 5.87 | 6.82 | 8.9 | 5.39 | 6.42 | 10.7
CC(C)([C@H]1C[C@H](NC(=O)c2ccc(OCC(F)(F)F)nc2)C1)S(=O)(=O)c1cccc(C(F)(F)F)c1 [Compound 674] | 5.03 | 5.56 | 5.62 | 1.1 | 5.52 | 6.54 | 10.4 | 5.11 | 5.76 | 4.4
CC(C)([C@H]1C[C@H](NC(=O)c2ccnc(C(F)(F)F)n2)C1)S(=O)(=O)c1cccc(OC(F)(F)F)c1 [Compound 635] | 5.16 | 5.12 | 5.11 | 1 | 5.70 | 6.57 | 7.4 | ≤ 5.00 | 5.12 | 1.3
